Results reported in patent US20260130395A1, “Water Dispersible Botanical Compositions” (Aquila Black Limited, priority 2021, published 2026).

Experiment: Stability of cannabinoid compounds and Vitamin E components in Beverage 2 (AB Red) by LCMSMS
Type: physicochemical

CCCCCc1cc(O)c2c(c1)OC(C)(CCC=C(C)C)C=C2 (centres unmarked) [CBC, cannabichromene]
Stability of Plant-Derived Cannabinoid Compounds in AB Red (stored at 8° C., 0 days): 0.290 µg/mL
Stability of Plant-Derived Cannabinoid Compounds in AB Red (stored at 8° C., 1 days): 0.289 µg/mL
Stability of Plant-Derived Cannabinoid Compounds in AB Red (stored at 8° C., 2 days): 0.292 µg/mL
Stability of Plant-Derived Cannabinoid Compounds in AB Red (stored at 8° C., 3 days): 0.285 µg/mL
Stability of Plant-Derived Cannabinoid Compounds in AB Red (stored at 8° C., 5 days): 0.286 µg/mL
Stability of Plant-Derived Cannabinoid Compounds in AB Red (stored at 8° C., 8 days): 0.286 µg/mL
Stability of Plant-Derived Cannabinoid Compounds in AB Red (stored at 8° C., 9 days): 0.288 µg/mL
Stability of Plant-Derived Cannabinoid Compounds in AB Red (stored at 8° C., 10 days): 0.288 µg/mL
Stability of Plant-Derived Cannabinoid Compounds in AB Red (stored at 8° C., 11 days): 0.284 µg/mL
Stability of Plant-Derived Cannabinoid Compounds in AB Red (stored at 8° C., 12 days): 0.285 µg/mL
Stability of Plant-Derived Cannabinoid Compounds in AB Red (stored at 8° C., 15 days): 0.292 µg/mL
Stability of Plant-Derived Cannabinoid Compounds in AB Red (stored at 8° C., 16 days): 0.283 µg/mL
Stability of Plant-Derived Cannabinoid Compounds in AB Red (stored at 8° C., 17 days): 0.282 µg/mL
Stability of Plant-Derived Cannabinoid Compounds in AB Red (stored at 8° C., 18 days): 0.289 µg/mL
Stability of Plant-Derived Cannabinoid Compounds in AB Red (stored at 8° C., 19 days): 0.287 µg/mL
Stability of Plant-Derived Cannabinoid Compounds in AB Red (stored at 8° C., 22 days): 0.287 µg/mL
Stability of Plant-Derived Cannabinoid Compounds in AB Red (stored at 8° C., 23 days): 0.287 µg/mL
Stability of Plant-Derived Cannabinoid Compounds in AB Red (stored at 8° C., 24 days): 0.291 µg/mL
Stability of Plant-Derived Cannabinoid Compounds in AB Red (stored at 8° C., 25 days): 0.287 µg/mL
Stability of Plant-Derived Cannabinoid Compounds in AB Red (stored at 8° C., 26 days): 0.287 µg/mL
Stability of Plant-Derived Cannabinoid Compounds in AB Red (stored at 8° C., 29 days): 0.284 µg/mL
Stability of Plant-Derived Cannabinoid Compounds in AB Red (stored at 8° C., 30 days): 0.282 µg/mL
Stability of Plant-Derived Cannabinoid Compounds in AB Red (stored at 8° C., 60 days): 0.278 µg/mL
Stability of Plant-Derived Cannabinoid Compounds in AB Red (stored at 8° C., 90 days): 0.287 µg/mL
Stability of Plant-Derived Cannabinoid Compounds in AB Red (stored at 8° C., 120 days): 0.289 µg/mL
Stability of Plant-Derived Cannabinoid Compounds in AB Red (stored at 8° C., 150 days): 0.281 µg/mL
Stability of Plant-Derived Cannabinoid Compounds in AB Red (stored at 8° C., 180 days): 0.285 µg/mL
Stability of Plant-Derived Cannabinoid Compounds in AB Red (stored at 8° C., 210 days): 0.282 µg/mL
Stability of Plant-Derived Cannabinoid Compounds in AB Red (stored at 8° C., 240 days): 0.280 µg/mL
Stability of Plant-Derived Cannabinoid Compounds in AB Red (stored at 8° C., 270 days): 0.284 µg/mL
Stability of Plant-Derived Cannabinoid Compounds in AB Red (stored at 8° C., 300 days): 0.280 µg/mL
Stability of Plant-Derived Cannabinoid Compounds in AB Red (stored at 8° C., 330 days): 0.278 µg/mL
Stability of Plant-Derived Cannabinoid Compounds in AB Red (stored at 8° C., 360 days): 0.282 µg/mL
Stability of Plant-Derived Cannabinoid Compounds in AB Red (stored at 8° C., 390 days): 0.282 µg/mL
Stability of Plant-Derived Cannabinoid Compounds in AB Red (stored at 8° C., 420 days): 0.277 µg/mL
Stability of Plant-Derived Cannabinoid Compounds in AB Red (stored at 8° C., 450 days): 0.282 µg/mL
Stability of Plant-Derived Cannabinoid Compounds in AB Red (stored at 8° C., 480 days): 0.274 µg/mL
Stability of Plant-Derived Cannabinoid Compounds in AB Red (stored at 8° C., 510 days): 0.267 µg/mL
Stability of Plant-Derived Cannabinoid Compounds in AB Red (stored at 8° C., 540 days): 0.271 µg/mL
Stability of Plant-Derived Cannabinoid Compounds in AB Red (stored at 8° C., 570 days): 0.266 µg/mL
Stability of Plant-Derived Cannabinoid Compounds in AB Red (stored at 21-25° C., 0 days): 0.29 µg/mL
Stability of Plant-Derived Cannabinoid Compounds in AB Red (stored at 21-25° C., 1 days): 0.28 µg/mL
Stability of Plant-Derived Cannabinoid Compounds in AB Red (stored at 21-25° C., 2 days): 0.28 µg/mL
Stability of Plant-Derived Cannabinoid Compounds in AB Red (stored at 21-25° C., 3 days): 0.29 µg/mL
Stability of Plant-Derived Cannabinoid Compounds in AB Red (stored at 21-25° C., 5 days): 0.28 µg/mL
Stability of Plant-Derived Cannabinoid Compounds in AB Red (stored at 21-25° C., 8 days): 0.28 µg/mL
Stability of Plant-Derived Cannabinoid Compounds in AB Red (stored at 21-25° C., 9 days): 0.28 µg/mL
Stability of Plant-Derived Cannabinoid Compounds in AB Red (stored at 21-25° C., 10 days): 0.29 µg/mL
Stability of Plant-Derived Cannabinoid Compounds in AB Red (stored at 21-25° C., 11 days): 0.29 µg/mL
Stability of Plant-Derived Cannabinoid Compounds in AB Red (stored at 21-25° C., 12 days): 0.28 µg/mL
Stability of Plant-Derived Cannabinoid Compounds in AB Red (stored at 21-25° C., 15 days): 0.28 µg/mL
Stability of Plant-Derived Cannabinoid Compounds in AB Red (stored at 21-25° C., 16 days): 0.28 µg/mL
Stability of Plant-Derived Cannabinoid Compounds in AB Red (stored at 21-25° C., 17 days): 0.28 µg/mL
Stability of Plant-Derived Cannabinoid Compounds in AB Red (stored at 21-25° C., 18 days): 0.29 µg/mL
Stability of Plant-Derived Cannabinoid Compounds in AB Red (stored at 21-25° C., 19 days): 0.29 µg/mL
Stability of Plant-Derived Cannabinoid Compounds in AB Red (stored at 21-25° C., 22 days): 0.29 µg/mL
Stability of Plant-Derived Cannabinoid Compounds in AB Red (stored at 21-25° C., 23 days): 0.28 µg/mL
Stability of Plant-Derived Cannabinoid Compounds in AB Red (stored at 21-25° C., 24 days): 0.29 µg/mL
Stability of Plant-Derived Cannabinoid Compounds in AB Red (stored at 21-25° C., 25 days): 0.28 µg/mL
Stability of Plant-Derived Cannabinoid Compounds in AB Red (stored at 21-25° C., 26 days): 0.28 µg/mL
Stability of Plant-Derived Cannabinoid Compounds in AB Red (stored at 21-25° C., 29 days): 0.29 µg/mL
Stability of Plant-Derived Cannabinoid Compounds in AB Red (stored at 21-25° C., 30 days): 0.29 µg/mL
Stability of Plant-Derived Cannabinoid Compounds in AB Red (stored at 21-25° C., 60 days): 0.29 µg/mL
Stability of Plant-Derived Cannabinoid Compounds in AB Red (stored at 21-25° C., 90 days): 0.28 µg/mL
Stability of Plant-Derived Cannabinoid Compounds in AB Red (stored at 21-25° C., 120 days): 0.29 µg/mL
Stability of Plant-Derived Cannabinoid Compounds in AB Red (stored at 21-25° C., 150 days): 0.29 µg/mL
Stability of Plant-Derived Cannabinoid Compounds in AB Red (stored at 21-25° C., 180 days): 0.28 µg/mL
Stability of Plant-Derived Cannabinoid Compounds in AB Red (stored at 21-25° C., 210 days): 0.29 µg/mL
Stability of Plant-Derived Cannabinoid Compounds in AB Red (stored at 21-25° C., 240 days): 0.28 µg/mL
Stability of Plant-Derived Cannabinoid Compounds in AB Red (stored at 21-25° C., 270 days): 0.29 µg/mL
Stability of Plant-Derived Cannabinoid Compounds in AB Red (stored at 21-25° C., 300 days): 0.29 µg/mL
Stability of Plant-Derived Cannabinoid Compounds in AB Red (stored at 21-25° C., 330 days): 0.29 µg/mL
Stability of Plant-Derived Cannabinoid Compounds in AB Red (stored at 21-25° C., 360 days): 0.28 µg/mL
Stability of Plant-Derived Cannabinoid Compounds in AB Red (stored at 21-25° C., 390 days): 0.28 µg/mL
Stability of Plant-Derived Cannabinoid Compounds in AB Red (stored at 21-25° C., 420 days): 0.28 µg/mL
Stability of Plant-Derived Cannabinoid Compounds in AB Red (stored at 21-25° C., 450 days): 0.28 µg/mL
Stability of Plant-Derived Cannabinoid Compounds in AB Red (stored at 21-25° C., 480 days): 0.28 µg/mL
Stability of Plant-Derived Cannabinoid Compounds in AB Red (stored at 21-25° C., 510 days): 0.27 µg/mL
Stability of Plant-Derived Cannabinoid Compounds in AB Red (stored at 21-25° C., 540 days): 0.28 µg/mL
Stability of Plant-Derived Cannabinoid Compounds in AB Red (stored at 21-25° C., 570 days): 0.27 µg/mL
